What is called pIC50 is −log10 of the IC50, conventionally taken in molar units.

pIC50: −log10 of the molar value. Bounds are passed on as bounds.

Data set [1] can be described thus: Selectivity index, ratio of CC50 for cytotoxicity against dog MDCK cells to IC50 for antiviral activity against Oseltamivir resistant Influenza A virus (A/Tianjin-Jinnan/15/2009(H1N1)) infected in dog MDCK cells. The following applies: read-out: Selectivity Index. Format: toxicity, cell-based.
Another data set deals with Influenza A virus. The data set is described as follows: Antiviral activity against Oseltamivir resistant Influenza A virus (A/Tianjin-Jinnan/15/2009(H1N1) infected in dog MDCK cells assessed as inhibition of surface glycoprotein hemagglutinin. Format: functional, organism-based.

With `CC(=O)Nc1ccc2oc(-c3ccnc(C(=O)N4CCN([C@@H](c5ccccc5)c5nnn(C)n5)CC4)c3)nc2c1`, in data set [1], the selectivity ratio was more than 23. In addition, in the data set with Influenza A virus, the pIC50 was 5.07.

With `CC(=O)Nc1ccc2oc(-c3ccnc(C(=O)N4CCN([C@H](c5ccccc5)c5nnn(C)n5)CC4)c3)nc2c1`, the selectivity ratio in data set [1] was 2870. Also, the pIC50 with Influenza A virus was 7.30.

Take `CC(=O)Nc1ccc2oc(-c3ccnc(C(=O)N4CCN([C@H](c5ccc(F)cc5)c5nnn(C)n5)CC4)c3)nc2c1`: the selectivity ratio in data set [1] was more than 3330. Moreover, the pIC50 with Influenza A virus was 7.22.

With `CC(=O)Nc1ccc2oc(-c3ccnc(C(=O)N4CCN([C@@H](c5ccc(F)cc5)c5nnn(C)n5)CC4)c3)nc2c1`, the selectivity ratio in data set [1] was more than 30. Moreover, in the data set with Influenza A virus, the pIC50 was 5.18.

Regarding `CCOC(=O)C1=C[C@@H](OC(CC)CC)[C@H](NC(C)=O)[C@@H](N)C1` [OSELTAMIVIR], in data set [1], the selectivity ratio is more than 1. In the data set on Influenza A virus, the pIC50 is 3.75.

As to `NC(=O)c1ncn([C@@H]2O[C@H](CO)[C@@H](O)[C@H]2O)n1` [RIBAVIRIN], the selectivity ratio in data set [1] was more than 46. Moreover, the pIC50 in the data set with Influenza A virus is 5.37.

The values are drawn from ChEMBL document CHEMBL4825697, “Optimization and SAR research at the piperazine and phenyl rings of JNJ4796 as new anti-influenza A virus agents, part 1” (Eur J Med Chem, 2021).
